These results are taken from ChEMBL document CHEMBL3271994, “Diethyl (4baalpha,4calpha,9aalpha,9balpha)-3,6-dichlorocyclobuta[1,2-b:3,4-b']bisbenzofuran-9a,9b(4bH,4cH)-dicarboxylate: the cis,syn photodimer of ethyl 5-chlorobenzofuran-2-carboxylate, an analogue related to the antilipidemic drug clofibrate” (J Med Chem, 1978).

Active and inactive are the calls of the source. The calls are words filed in the database; no cut-off is given here.

Series [1] relates to Rattus norvegicus. In words: Antilipidemic activity in purina chow fed Sprague-Dawley rat assessed as reduction of serum cholesterol level at 0.124 mM/kg relative to control. It is filed as functional. Details: scale not given: the % may be the effect or the level left.
Series [2] relates to Rattus norvegicus. As to the kind of experiment: Increase in liver to body weight ratio in sucrose-fed Sprague-Dawley rat model at 0.4 mmol/kg, po bid administered for 7 days measured after 12 hrs post last dose (reference value: 4.07 +/- 0.28 %). It is filed as ADME, organism-based. The following applies: in vivo.
For series [3], the system named is Rattus norvegicus. As to the kind of experiment: Antilipidemic activity in triton WR-1339-induced hyperlipidemic Sprague-Dawley rat model assessed as reduction of serum triglyceride level at 0.124 mM/kg relative to control. Also noted: scale not given: the % may be the effect or the level left. It is filed as functional.
In series [4] the test system is Rattus norvegicus. In words: Effect on cytochrome P450 level in sucrose-fed Sprague-Dawley rat model assessed per mg of protein at 0.4 mmol/kg, po bid administered for 7 days measured after 12 hrs post last dose relative to control. The conditions noted are these: in vivo. It is filed as ADME, organism-based.
The test system of series [5] is Rattus norvegicus. In words: Antilipidemic activity in triton WR-1339-induced hyperlipidemic Sprague-Dawley rat model assessed as reduction of serum cholesterol level at 0.124 mM/kg relative to control. Also noted: scale not given: the % may be the effect or the level left. It is filed as functional.
The subject of series [6] is Rattus norvegicus. As to the kind of experiment: Increase in NADPH cytochrome c reductase activity in sucrose-fed Sprague-Dawley rat model at 0.4 mmol/kg, po bid administered for 7 days measured after 12 hrs post last dose relative to control. It is filed as ADME, organism-based. The conditions noted are these: in vivo.
The subject of series [7] is Rattus norvegicus. In words: Increase in liver weight in sucrose-fed Sprague-Dawley rat model at 0.4 mmol/kg, po bid administered for 7 days measured after 12 hrs post last dose (reference value: 11.76 +/- 1.32 gm). It is filed as ADME, organism-based. The following applies: in vivo.
The test system of series [8] is Rattus norvegicus. As to the kind of experiment: Increase in microsomal protein level in sucrose-fed Sprague-Dawley rat model at 0.4 mmol/kg, po bid administered for 7 days measured after 12 hrs post last dose (reference value: 32.7 +/- 2.2 mg/gm). It is filed as ADME, organism-based. The conditions noted are these: in vivo.
For series [9], the system named is Rattus norvegicus. As to the kind of experiment: Antilipidemic activity in sucrose-fed Sprague-Dawley rat model assessed as reduction of liver cholesterol level at 0.4 mmol/kg, po bid administered for 7 days measured after 12 hrs post last dose (reference value: 1.86 +/- 0.17 mg/gm). It is filed as functional.
The subject of series [10] is Rattus norvegicus. In words: Effect on cytochrome b5 level in sucrose-fed Sprague-Dawley rat model assessed per mg of protein at 0.4 mmol/kg, po bid administered for 7 days measured after 12 hrs post last dose (reference value: 0.184 +/- 0.023 nmol). The following applies: in vivo. It is filed as ADME, organism-based.
The test system of series [11] is Rattus norvegicus. In words: Increase in ethylmorphine N-demethylase activity in sucrose-fed Sprague-Dawley rat model at 0.4 mmol/kg, po bid administered for 7 days measured after 12 hrs post last dose relative to control. It is filed as ADME, organism-based. The following applies: in vivo.
For series [12], the system named is Rattus norvegicus. In words: Antilipidemic activity in triton WR-1339-induced hyperlipidemic Sprague-Dawley rat model assessed as reduction of plasma lipid level at 0.124 mM/kg measured 43 hrs after triton WR-1339 challenge.
Series [13] has as its system Rattus norvegicus. As to the kind of experiment: Antilipidemic activity in purina chow fed Sprague-Dawley rat assessed as reduction of serum triglyceride level at 0.124 mM/kg relative to control. Details: scale not given: the % may be the effect or the level left. It is filed as functional.
Series [14] relates to Rattus norvegicus. As to the kind of experiment: Antilipidemic activity in sucrose fed Sprague-Dawley rat model assessed as serum triglyceride level at 0.4 mmol/kg, po bid administered for 7 days measured after 12 hrs post last dose (reference value: 91.9 +/- 19.8 mg/dL). It is filed as functional.
Series [15] concerns Rattus norvegicus. In words: Antilipidemic activity in sucrose-fed Sprague-Dawley rat model assessed as reduction in HMG-CoA reductase activity at 0.4 mmol/kg, po bid administered for 7 days measured after 12 hrs post last dose relative to control. It is filed as functional.
Series [16] deals with Rattus norvegicus. In words: Antilipidemic activity in sucrose fed Sprague-Dawley rat model assessed as serum cholesterol level at 0.4 mmol/kg, po bid administered for 7 days measured after 12 hrs post last dose (reference value: 61.7 +/- 11.6 mg/dL). It is filed as functional.
For series [17], the system named is Rattus norvegicus. As to the kind of experiment: Antilipidemic activity in sucrose-fed Sprague-Dawley rat model assessed as reduction of liver triglyceride level at 0.4 mmol/kg, po bid administered for 7 days measured after 12 hrs post last dose relative to control. It is filed as functional.
In series [18] the test system is Rattus norvegicus. In words: Effect on cytochrome P450 level in sucrose-fed Sprague-Dawley rat model assessed per mg of protein at 0.2 mmol/kg, po bid administered for 7 days measured after 12 hrs post last dose relative to control. It is filed as ADME, organism-based. The conditions noted are these: in vivo.
Series [19] deals with Rattus norvegicus. As to the kind of experiment: Increase in ethylmorphine N-demethylase activity in sucrose-fed Sprague-Dawley rat model at 0.2 mmol/kg, po bid administered for 7 days measured after 12 hrs post last dose relative to control. The conditions noted are these: in vivo. It is filed as ADME, organism-based.
In series [20] the test system is Rattus norvegicus. In words: Antilipidemic activity in sucrose fed Sprague-Dawley rat model assessed as serum triglyceride level at 0.2 mmol/kg, po bid administered for 7 days measured after 12 hrs post last dose (reference value: 91.9 +/- 19.8 mg/dL). It is filed as functional.
Series [21] has as its system Rattus norvegicus. As to the kind of experiment: Increase in liver weight in sucrose-fed Sprague-Dawley rat model at 0.2 mmol/kg, po bid administered for 7 days measured after 12 hrs post last dose (reference value: 11.76 +/- 1.32 gm). It is filed as ADME, organism-based. The conditions noted are these: in vivo.
Series [22] has as its system Rattus norvegicus. In words: Increase in liver to body weight ratio in sucrose-fed Sprague-Dawley rat model at 0.2 mmol/kg, po bid administered for 7 days measured after 12 hrs post last dose (reference value: 4.07 +/- 0.28 %). It is filed as ADME, organism-based. The following applies: in vivo.
Series [23] deals with Rattus norvegicus. As to the kind of experiment: Increase in microsomal protein level in sucrose-fed Sprague-Dawley rat model at 0.2 mmol/kg, po bid administered for 7 days measured after 12 hrs post last dose (reference value: 32.7 +/- 2.2 mg/gm). It is filed as ADME, organism-based. The conditions noted are these: in vivo.
In series [24] the test system is Rattus norvegicus. In words: Antilipidemic activity in sucrose-fed Sprague-Dawley rat model assessed as reduction of liver triglyceride level at 0.2 mmol/kg, po bid administered for 7 days measured after 12 hrs post last dose relative to control. It is filed as functional.
Series [25] deals with Rattus norvegicus. In words: Antilipidemic activity in sucrose-fed Sprague-Dawley rat model assessed as reduction in HMG-CoA reductase activity at 0.2 mmol/kg, po bid administered for 7 days measured after 12 hrs post last dose relative to control. It is filed as functional.
In series [26] the test system is Rattus norvegicus. As to the kind of experiment: Antilipidemic activity in sucrose-fed Sprague-Dawley rat model assessed as reduction of liver cholesterol level at 0.2 mmol/kg, po bid administered for 7 days measured after 12 hrs post last dose (reference value: 1.86 +/- 0.17 mg/gm). It is filed as functional.
Series [27] deals with Rattus norvegicus. As to the kind of experiment: Increase in NADPH cytochrome c reductase activity in sucrose-fed Sprague-Dawley rat model at 0.2 mmol/kg, po bid administered for 7 days measured after 12 hrs post last dose (reference value: 148.7 +/- 17.7 nmol/mg/min). It is filed as ADME, organism-based. The following applies: in vivo.
Series [28] deals with Rattus norvegicus. As to the kind of experiment: Effect on cytochrome P450 level in sucrose-fed Sprague-Dawley rat model assessed per mg of protein at 0.2 mmol/kg, po bid administered for 7 days measured after 12 hrs post last dose (reference value: 0.361 +/- […] nmol). It is filed as ADME, organism-based. The following applies: in vivo.
For series [29], the system named is Rattus norvegicus. As to the kind of experiment: Increase in NADPH cytochrome c reductase activity in sucrose-fed Sprague-Dawley rat model at 0.2 mmol/kg, po bid administered for 7 days measured after 12 hrs post last dose relative to control. It is filed as ADME, organism-based. The conditions noted are these: in vivo.
The subject of series [30] is Rattus norvegicus. In words: Effect on cytochrome b5 level in sucrose-fed Sprague-Dawley rat model assessed per mg of protein at 0.2 mmol/kg, po bid administered for 7 days measured after 12 hrs post last dose (reference value: 0.184 +/- 0.023 nmol). It is filed as ADME, organism-based. The conditions noted are these: in vivo.
Series [31] has as its system Rattus norvegicus. In words: Antilipidemic activity in sucrose fed Sprague-Dawley rat model assessed as serum cholesterol level at 0.2 mmol/kg, po bid administered for 7 days measured after 12 hrs post last dose (reference value: 61.7 +/- 11.6 mg/dL). It is filed as functional.

In the case of `CCOC(=O)C(C)(C)Oc1ccc(Cl)cc1` [CLOFIBRATE], the Activity was 87% in series [1]; 5.24% in [2]; 22.3% in series [3]; 262% in series [4]; 93.2% in [5]; 163% in series [6]. Besides, the Activity in [7] worked out at 14.3 g; in series [8] it was 39.3 mg/g; in series [9] it was 1.84 mg/g; in [10], 0.2 nmol; in series [11] it was 180%; in series [13], 24.1%. Further, the Activity was found to be 26.9 mg/dL in [14], 2.1 nmol/mg/h in series [15], 31.7 mg/dL in [16] and 3.21 mg/g in series [17]. In addition, the outcome in series [12] was inactive.

For the compound `CCOC(=O)[C@@]12Oc3ccc(Cl)cc3[C@@H]1[C@@H]1c3cc(Cl)ccc3O[C@@]12C(=O)OCC`, the Activity was determined as 63.9% in series [1]; 4.03% in series [2]; 138% in series [18]; 157% in [19]; 70.2 mg/dL in series [20]; 33% in series [3]. In addition, the Activity in [21] was 11.24 g; in [22], 3.69%; in series [23] it was 41.4 mg/g; in series [24], 8.09 mg/g; in series [5], 176.7%; in series [25], 2.42 nmol/mg/h. For the same compound, the Activity in series [26] is recorded as 1.98 mg/g; in [7], 11.99 g; in series [27] it was 168.7 nmol/mg/min; in series [8] it was 38.2 mg/g; in [28] it was 0.386 nmol; in series [9], 2.1 mg/g. The Activity in [29] was 123%; in series [10] it was 0.19 nmol; in series [30], 0.179 nmol; in [13], 24.3%; in series [14] it was 102.7 mg/dL; in series [15] it was 2.41 nmol/mg/h. The Activity in series [31] came to 69.5 mg/dL; in series [16], 81 mg/dL; in series [17] it was 12.34 mg/g. In series [12], the result was inactive.
